Data: ChEMBL document CHEMBL1143416, “In vitro susceptibility to posaconazole of 1,903 yeast isolates recovered in France from 2003 to 2006 and tested by the method of the European committee on antimicrobial susceptibility testing” (2007)

Legend:
Type in all cases: functional
Yarrowia lipolytica = test: Antimicrobial activity against Candida lipolytica isolate
Cyberlindnera jadinii = test: Antimicrobial activity against Candida utilis isolate; settings: Williopsis jadinii
Trichosporon inkin = test: Antimicrobial activity against Trichosporon inkin isolate
Apiotrichum loubieri = test: Antimicrobial activity against Trichosporon loubieri isolate
Saccharomyces cerevisiae = test: Antimicrobial activity against Saccharomyces cerevisiae isolate
Kodamaea ohmeri = test: Antimicrobial activity against Pichia ohmeri isolate
Trichosporon asahii = test: Antimicrobial activity against Trichosporon asahii isolate
Diutina rugosa = test: Antimicrobial activity against Candida rugosa isolate
Trichosporon = test: Antimicrobial activity against Trichosporon isolate
Debaryomyces hansenii = test: Antimicrobial activity against Candida famata isolate
[Candida] inconspicua = Antimicrobial activity against Candida inconspicua isolate; settings: Pichia inconspicua
Magnusiomyces capitatus = test: Antimicrobial activity against Geotrichum capitatum isolate
Candida africana = test: Antimicrobial activity against Candida africana isolate
[Candida] palmioleophila = Antimicrobial activity against Candida palmioleophila isolate; settings: Suzukiozyma palmioleophila
[1] = test system: Cutaneotrichosporon mucoides; test: Antimicrobial activity against Trichosporon mucoides isolate
Meyerozyma caribbica = test: Antimicrobial activity against Candida fermentati isolate
Wickerhamomyces anomalus = test: Antimicrobial activity against Candida pelliculosa isolate; settings: Hansenula anomala
Rhodotorula mucilaginosa = test: Antimicrobial activity against Rhodotorula mucilaginosa isolate
[Candida] haemuloni = Antimicrobial activity against Candida haemulonii isolate; settings: Candidozyma haemuli
Kluyveromyces marxianus [2] = test: Antimicrobial activity against Candida kefyr isolate
[3] = test system: Meyerozyma guilliermondii; test: Antimicrobial activity against Candida guilliermondii isolate from superficial infection
Kluyveromyces marxianus [4] = test: Antimicrobial activity against Candida kefyr blood isolate
Candida albicans [5] = test: Antimicrobial activity against Candida albicans isolate
Candida albicans [6] = test: Antimicrobial activity against Candida albicans blood isolate
Candida tropicalis [7] = test: Antimicrobial activity against Candida tropicalis blood isolate
Candida parapsilosis [8] = test: Antimicrobial activity against Candida parapsilosis blood isolate; settings: Lodderomyces parapsilosis
Pichia kudriavzevii [9] = test: Antimicrobial activity against Candida krusei blood isolate
Clavispora lusitaniae [10] = test: Antimicrobial activity against Candida lusitaniae blood isolate
Nakaseomyces glabratus [11] = test: Antimicrobial activity against Candida glabrata isolate from superficial infection
Clavispora lusitaniae [12] = test: Antimicrobial activity against Candida lusitaniae isolate
Candida albicans [13] = test: Antimicrobial activity against Candida albicans isolate from superficial infection
Candida dubliniensis [14] = test: Antimicrobial activity against Candida dubliniensis isolate
Clavispora lusitaniae [15] = test: Antimicrobial activity against Candida lusitaniae isolate from superficial infection
[16] = test system: Meyerozyma guilliermondii; test: Antimicrobial activity against Candida guilliermondii isolate
Candida tropicalis [17] = test: Antimicrobial activity against Candida tropicalis isolate from superficial infection
Cryptococcus neoformans [18] = test: Antimicrobial activity against Cryptococcus neoformans isolate
Cryptococcus neoformans [19] = test: Antimicrobial activity against Cryptococcus neoformans isolate from superficial infection
Candida parapsilosis [20] = test: Antimicrobial activity against Candida parapsilosis isolate; settings: Lodderomyces parapsilosis
Candida dubliniensis [21] = test: Antimicrobial activity against Candida dubliniensis isolate from superficial infection
Candida dubliniensis [22] = test: Antimicrobial activity against Candida dubliniensis blood isolate
Cryptococcus neoformans [23] = test: Antimicrobial activity against Cryptococcus neoformans blood isolate
[24] = test system: Meyerozyma guilliermondii; test: Antimicrobial activity against Candida guilliermondii blood isolate
Nakaseomyces glabratus [25] = test: Antimicrobial activity against Candida glabrata isolate
Candida tropicalis [26] = test: Antimicrobial activity against Candida tropicalis isolate
Candida parapsilosis [27] = test: Antimicrobial activity against Candida parapsilosis isolate from superficial infection; settings: Lodderomyces parapsilosis
Pichia kudriavzevii [28] = test: Antimicrobial activity against Candida krusei isolate
Nakaseomyces glabratus [29] = test: Antimicrobial activity against Candida glabrata blood isolate
Pichia kudriavzevii [30] = test: Antimicrobial activity against Candida krusei isolate from superficial infection

OC(Cn1cncn1)(Cn1cncn1)c1ccc(F)cc1F [FLUCONAZOLE]
8 µg/mL: MIC50 (Kodamaea ohmeri) | MIC50 ([Candida] palmioleophila) | MIC50 (Meyerozyma caribbica)
4 µg/mL: MIC50 (Magnusiomyces capitatus)
2 µg/mL: MIC50 (Yarrowia lipolytica) | MIC50 (Apiotrichum loubieri) | MIC50 (Trichosporon asahii) | MIC50 (Trichosporon) | MIC50 [1] | MIC50 (Wickerhamomyces anomalus)
≥ 64 µg/mL: MIC90 (Meyerozyma caribbica) | MIC50 (Rhodotorula mucilaginosa) | MIC90 ([Candida] haemuloni)
16 µg/mL: MIC50 ([Candida] inconspicua)
0.25 µg/mL: MIC50 (Saccharomyces cerevisiae) | MIC50 (Candida africana)
1 µg/mL: MIC50 (Cyberlindnera jadinii) | MIC50 (Diutina rugosa)
0.5 µg/mL: MIC50 (Trichosporon inkin)
32 µg/mL: MIC50 ([Candida] haemuloni)
0.125 µg/mL: MIC50 (Debaryomyces hansenii)

CC[C@@H]([C@H](C)O)n1ncn(-c2ccc(N3CCN(c4ccc(OC[C@@H]5CO[C@@](Cn6cncn6)(c6ccc(F)cc6F)C5)cc4)CC3)cc2)c1=O [POSACONAZOLE]
0.5 µg/mL: MIC50 [3] | MIC90 [3] | MIC90 (Kluyveromyces marxianus [4]) | MIC90 (Candida tropicalis [7]) | MIC90 (Pichia kudriavzevii [9]) | MIC90 [16] | MIC50 (Magnusiomyces capitatus) | MIC90 (Cryptococcus neoformans [18]) | MIC90 (Cryptococcus neoformans [19]) | MIC90 (Cryptococcus neoformans [23]) | MIC90 (Pichia kudriavzevii [28]) | MIC90 (Pichia kudriavzevii [30])
0.25 µg/mL: MIC90 (Kluyveromyces marxianus [2]) | MIC90 (Candida parapsilosis [8]) | MIC50 (Pichia kudriavzevii [9]) | MIC90 (Clavispora lusitaniae [10]) | MIC90 (Clavispora lusitaniae [12]) | MIC90 (Candida albicans [13]) | MIC50 (Trichosporon asahii) | MIC50 [16] | MIC90 (Candida parapsilosis [20]) | MIC50 (Meyerozyma caribbica) | MIC50 [24] | MIC90 (Candida tropicalis [26]) | MIC90 (Candida parapsilosis [27]) | MIC50 (Pichia kudriavzevii [28]) | MIC50 (Pichia kudriavzevii [30])
0.03 µg/mL: MIC50 (Candida albicans [6]) | MIC50 (Saccharomyces cerevisiae) | MIC (Clavispora lusitaniae [15])
4 µg/mL: MIC90 (Candida tropicalis [17])
≤ 0.015 µg/mL: MIC50 (Candida africana) | MIC (Candida dubliniensis [21])
0.06 µg/mL: MIC50 (Trichosporon inkin) | MIC50 (Apiotrichum loubieri) | MIC50 (Candida albicans [5]) | MIC50 (Clavispora lusitaniae [10]) | MIC50 (Clavispora lusitaniae [12]) | MIC50 (Candida albicans [13]) | MIC50 (Kodamaea ohmeri) | MIC50 (Candida dubliniensis [14]) | MIC50 (Diutina rugosa) | MIC50 (Trichosporon) | MIC50 [1] | MIC50 (Wickerhamomyces anomalus) | MIC50 (Candida dubliniensis [22])
0.125 µg/mL: MIC50 (Kluyveromyces marxianus [2]) | MIC50 (Yarrowia lipolytica) | MIC50 (Cyberlindnera jadinii) | MIC50 (Kluyveromyces marxianus [4]) | MIC90 (Candida albicans [5]) | MIC90 (Candida albicans [6]) | MIC50 (Candida tropicalis [7]) | MIC50 (Candida parapsilosis [8]) | MIC90 (Candida dubliniensis [14]) | MIC50 (Debaryomyces hansenii) | MIC50 ([Candida] inconspicua) | MIC50 (Candida tropicalis [17]) | MIC50 ([Candida] palmioleophila) | MIC50 (Cryptococcus neoformans [18]) | MIC50 (Cryptococcus neoformans [19]) | MIC50 (Candida parapsilosis [20]) | MIC90 (Candida dubliniensis [22]) | MIC50 (Cryptococcus neoformans [23]) | MIC50 (Candida tropicalis [26]) | MIC50 (Candida parapsilosis [27])
1 µg/mL: MIC50 (Nakaseomyces glabratus [11]) | MIC90 (Meyerozyma caribbica) | MIC50 (Rhodotorula mucilaginosa) | MIC90 [24] | MIC50 (Nakaseomyces glabratus [25]) | MIC50 (Nakaseomyces glabratus [29])
≥ 8 µg/mL: MIC90 (Nakaseomyces glabratus [11]) | MIC90 (Nakaseomyces glabratus [25]) | MIC90 (Nakaseomyces glabratus [29]) | MIC50 ([Candida] haemuloni) | MIC90 ([Candida] haemuloni)

C[C@@H](c1ncncc1F)[C@](O)(Cn1cncn1)c1ccc(F)cc1F [VORICONAZOLE]
1 µg/mL: MIC90 (Meyerozyma caribbica)
2 µg/mL: MIC50 (Rhodotorula mucilaginosa)
0.03 µg/mL: MIC50 (Cyberlindnera jadinii) | MIC50 (Apiotrichum loubieri) | MIC50 (Kodamaea ohmeri) | MIC50 (Trichosporon asahii) | MIC50 (Trichosporon) | MIC50 [1] | MIC50 (Wickerhamomyces anomalus)
0.06 µg/mL: MIC50 ([Candida] inconspicua) | MIC50 ([Candida] palmioleophila)
0.125 µg/mL: MIC50 (Meyerozyma caribbica)
≥ 8 µg/mL: MIC50 ([Candida] haemuloni) | MIC90 ([Candida] haemuloni)
≤ 0.015 µg/mL: MIC50 (Yarrowia lipolytica) | MIC50 (Trichosporon inkin) | MIC50 (Saccharomyces cerevisiae) | MIC50 (Diutina rugosa) | MIC50 (Debaryomyces hansenii) | MIC50 (Magnusiomyces capitatus) | MIC50 (Candida africana)
